Where no end group is shown, it is not given here.
Tests used:
human THP-1 cells = test: cAMP assay in human THP-1 cells; format: cell-based; settings: FIG. 6, compared with recombinant relaxin-2
receptor RXFP1 = target: T1, receptor RXFP1 (Homo sapiens, UniProt Q9HBX9); test: displacement of europium-labeled relaxin-2 in HEK-293T cells expressing RXFP1; format: binding; settings: HEK-293T cells expressing natural receptor RXFP1; compared with recombinant human relaxin-2
T1 construct: expressed in transfected cells; host or cells: HEK-293T
T1 sequence (Q9HBX9 1-757): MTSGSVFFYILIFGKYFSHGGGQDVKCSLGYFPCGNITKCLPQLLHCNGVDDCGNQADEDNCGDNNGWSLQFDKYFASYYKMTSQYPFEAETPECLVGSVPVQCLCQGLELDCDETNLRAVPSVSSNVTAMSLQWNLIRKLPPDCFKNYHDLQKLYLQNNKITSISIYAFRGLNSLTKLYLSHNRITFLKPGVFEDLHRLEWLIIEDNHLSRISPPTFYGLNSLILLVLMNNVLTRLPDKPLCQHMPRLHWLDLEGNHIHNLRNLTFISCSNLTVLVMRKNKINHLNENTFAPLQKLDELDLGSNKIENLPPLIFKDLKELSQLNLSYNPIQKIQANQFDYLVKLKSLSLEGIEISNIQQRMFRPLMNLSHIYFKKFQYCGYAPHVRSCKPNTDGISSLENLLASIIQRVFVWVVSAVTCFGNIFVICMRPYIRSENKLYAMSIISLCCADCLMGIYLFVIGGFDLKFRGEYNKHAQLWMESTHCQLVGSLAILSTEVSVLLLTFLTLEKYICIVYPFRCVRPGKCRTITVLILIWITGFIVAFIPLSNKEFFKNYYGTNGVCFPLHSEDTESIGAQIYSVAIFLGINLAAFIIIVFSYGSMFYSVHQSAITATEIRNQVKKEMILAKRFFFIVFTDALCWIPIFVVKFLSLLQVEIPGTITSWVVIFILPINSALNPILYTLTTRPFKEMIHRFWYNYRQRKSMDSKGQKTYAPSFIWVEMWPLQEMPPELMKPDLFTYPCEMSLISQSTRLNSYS

cardiac fibroblasts = test: cell model of myocardial hypertrophy; format: cell-based; settings: inhibition of cardiac fibroblast differentiation into myofibroblasts and of growth factor secretion; compared with recombinant
Source text: In this model, relaxin inhibits the differentiation of cardiac fibroblasts into myofibroblasts and the secretion of growth factors by these cells (Dschietzig et al., 2006).

cell models = test: studies on cell models (bioassays); format: cell-based; settings: compared with recombinant peptide
[1] = storage stability of lyophilized relaxin-2; format: physicochemical; settings: 4° C., stored for several months, compared with fresh material
Experimental: The product is lyophilized for storage and stored at −20° C. The high stability of the preparation of highly pure relaxin-2 in lyophilized form at a temperature of 4° C. has been proven by corresponding analytics, in which fresh material was compared with material stored for several months.

Substance | activity in cAMP assay (human THP-1 cells) | potency in displacing europium-labeled relaxin-2 (receptor RXFP1) | potency in cell model of myocardial hypertrophy (cardiac fibroblasts) | effect on cell models (cell models) | stability in lyophilized form [1]
AZ02: batch of relaxin-2 prepared by chemical synthesis (chain 1 ELYSALANKCCHVGCTKRSLARFC; chain 2 DSWMEEVIKLCGRELVRAQIAICGMSTWS; non-natural residues) | comparable to that of the recombinantly prepared relaxin-2 |  |  |  | 
human relaxin-2 [synthetic human relaxin-2] | equivalent bioactivities | same potency as recombinant human relaxin-2 | as potent as recombinant human relaxin-2 | excellent effect, comparable to that of the recombinant peptide | only minor amounts of metabolites appear
recombinant human relaxin-2: recombinantly prepared human relaxin-2 used as comparator (chain 1 QLYSALANKCCHVGCTKRSLARFC; chain 2 DSWMEEVIKLCGRELVRAQIAICGMSTWS; not fully specified; ends and bridges not checked) [reference compound] | equivalent bioactivities |  |  |  | 

— patent publication US9434780B2, “Process for preparing human relaxin-2” (Relaxera Pharma GmbH & Co. KG i.G., priority 2011, dated 2016)
